Reference: patent US12428380B2 (PSYLO PTY LTD, priority 2023, dated 2025)

Tests used:
Format in all cases: cell-based
5-HT2A = biological target: T1, 5-HT2A (Homo sapiens, UniProt P28223); assay: FLIPR Ca2+ flux functional assay, 5-HT2A (HEK293); settings: HEK293 cells expressing 5-HT2A; for Emax: HEK293, agonist activity; for EC50: agonist activity
T1 construct: host or cells: HEK293

5-HT2C = biological target: T2, 5-HT2C (Homo sapiens, UniProt P28335); assay: FLIPR Ca2+ flux functional assay, 5-HT2C (HEK293); settings: HEK293 cells expressing 5-HT2C; for Emax: HEK293, agonist activity; for EC50: agonist activity
T2 construct: host or cells: HEK293
T2 sequence (P28335 33-458): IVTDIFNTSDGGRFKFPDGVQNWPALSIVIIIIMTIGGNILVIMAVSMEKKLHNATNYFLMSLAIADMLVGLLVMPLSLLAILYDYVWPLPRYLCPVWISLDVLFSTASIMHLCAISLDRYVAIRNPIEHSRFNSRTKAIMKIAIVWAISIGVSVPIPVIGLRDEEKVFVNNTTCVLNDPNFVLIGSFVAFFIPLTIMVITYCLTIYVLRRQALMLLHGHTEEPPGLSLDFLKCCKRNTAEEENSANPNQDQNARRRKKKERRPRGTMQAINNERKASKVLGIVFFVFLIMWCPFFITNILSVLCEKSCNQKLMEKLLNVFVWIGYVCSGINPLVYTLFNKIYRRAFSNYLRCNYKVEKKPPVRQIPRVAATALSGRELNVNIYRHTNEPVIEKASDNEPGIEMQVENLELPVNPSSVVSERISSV

5-HT2B = biological target: T3, 5-HT2B (Homo sapiens, UniProt P41595); assay: Activation in a similar Ca2+ flux assay at a single concentration, 5-HT2B; settings: head prints 10 µM
T3 construct: host or cells: CHO-K1
T3 sequence (P41595 whole entry, species assumed): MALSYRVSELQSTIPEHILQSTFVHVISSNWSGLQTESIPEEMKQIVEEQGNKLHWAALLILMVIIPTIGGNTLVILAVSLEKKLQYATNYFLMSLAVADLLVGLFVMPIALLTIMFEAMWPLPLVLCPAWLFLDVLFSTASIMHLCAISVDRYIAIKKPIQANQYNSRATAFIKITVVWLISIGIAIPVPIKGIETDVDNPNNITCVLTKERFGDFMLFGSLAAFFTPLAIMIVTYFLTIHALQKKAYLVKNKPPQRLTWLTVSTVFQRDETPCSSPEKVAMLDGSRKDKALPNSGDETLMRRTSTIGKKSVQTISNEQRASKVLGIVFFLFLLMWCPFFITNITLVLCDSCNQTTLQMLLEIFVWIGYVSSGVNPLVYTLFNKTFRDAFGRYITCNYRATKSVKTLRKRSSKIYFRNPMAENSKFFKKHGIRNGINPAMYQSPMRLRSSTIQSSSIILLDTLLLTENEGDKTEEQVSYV
Experimental: Activity at 5-HT2A, 5-HT2B and 5-HT2C receptors was determined using a FLIPR Ca2+ flux assay at WuXi AppTec Co. Ltd. (Hong Kong) Discovery Biology Unit according to their standard protocols. Briefly, stably transfected cells expressing the receptor of interest (HEK293 for 5-HT2A and 5-HT2C; CHO-K1 for 5-HT2B) were grown and plated in a 384 well plate and incubated at 37° C. and 5% CO2 overnight. A 250 mM stock solution of probenecid in FLIPR calcium assay buffer (10 mL) was freshly prepared and combined with a fluorescent dye (Fluo-4 Direct) to give a final assay concentration of 2.5 mM. Reference compounds were 4-fold serially diluted and the screening compounds were 3-fold serially diluted in 100% DMSO for 10 points using Agilent Bravo, and 750 nL was added to a 384 well compound plate using Echo along with 30 μL assay buffer. The fluorescent dye was then added to the assay plate along with assay buffer to a final volume of 40 μL. The cell plate was incubated for 50 min at 37° C. and 5% CO2 and placed into the FLIPR Tetra along with the compound plate. 10 μL of references and compounds were then transferred from the compound plate into the cell plate and the fluorescent signal was read.
Activation data are provided in a similar assay tested at a single 10 μM concentration.

T1 sequence (P28223 whole entry): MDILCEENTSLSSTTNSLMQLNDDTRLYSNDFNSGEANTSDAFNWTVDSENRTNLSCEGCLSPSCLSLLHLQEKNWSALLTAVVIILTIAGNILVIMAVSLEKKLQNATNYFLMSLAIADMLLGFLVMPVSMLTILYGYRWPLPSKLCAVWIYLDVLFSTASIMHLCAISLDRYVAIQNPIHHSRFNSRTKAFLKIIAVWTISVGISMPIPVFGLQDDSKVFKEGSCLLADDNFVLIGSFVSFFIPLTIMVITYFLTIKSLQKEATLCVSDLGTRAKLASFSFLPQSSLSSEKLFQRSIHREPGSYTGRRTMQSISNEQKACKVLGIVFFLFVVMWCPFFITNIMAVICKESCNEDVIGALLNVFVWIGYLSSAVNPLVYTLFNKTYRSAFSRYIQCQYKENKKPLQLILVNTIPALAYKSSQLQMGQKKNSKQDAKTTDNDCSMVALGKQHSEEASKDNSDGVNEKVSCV

SMILES	Emax (5-HT2A) [%]	EC50 (5-HT2A) [nM]	Emax (5-HT2C) [%]	EC50 (5-HT2C) [nM]	5-HT2B % Activation @ 10 µM (5-HT2B) [%]
COc1ccc2[nH]nc(CCNCc3cccc(F)c3)c2c1 [Example A65, N-(3-fluorobenzyl)-2-(5-methoxy-1H-indazol-3-yl)ethan-1-amine]	70	91.6	81	891	1
COc1cc2c(CCN(C)C3CC3)n[nH]c2cc1F [Example A8, N-(2-(6-fluoro-5-methoxy-1H-indazol-3-yl)ethyl)-N-methylcyclopropanamine]	71	208	102	507	6
CC(C)N(C)CCc1n[nH]c2c(F)cc(F)cc12 [Example A37, N-(2-(5,7-difluoro-1H-indazol-3-yl)ethyl)-N-methylpropan-2-amine]	57	810	11	> 10000	0
COc1cc2c(CCN3CCC3C)n[nH]c2cc1F (stereo not drawn) [Example A58, 6-fluoro-5-methoxy-3-(2-(2-methylazetidin-1-yl)ethyl)-1H-indazole]	57	1130	19	> 10000	0
COc1cc2c(CCN3CCC3)n[nH]c2cc1F [Example A56, 3-(2-(azetidin-1-yl)ethyl)-6-fluoro-5-methoxy-1H-indazole]	90	105	50	3070	11
CCN(C)CCc1n[nH]c2cc(F)c(OC)cc12 [Example A6, N-ethyl-2-(6-fluoro-5-methoxy-1H-indazol-3-yl)-N-methylethan-1-amine]	86	110	101	786	40
CCN(C)CCc1n[nH]c2ccc(OC)c(F)c12 [Example A10, N-ethyl-2-(4-fluoro-5-methoxy-1H-indazol-3-yl)-N-methylethan-1-amine]	69	831	68	2860	1
COc1ccc(F)c2[nH]nc(CCN(C)C)c12 [Example A44, 2-(7-fluoro-4-methoxy-1H-indazol-3-yl)-N,N-dimethylethan-1-amine]	52	93	44	222	0
CCN(C)CCc1n[nH]c2cc(F)cc(OC)c12 [Example A39, N-ethyl-2-(6-fluoro-4-methoxy-1H-indazol-3-yl)-N-methylethan-1-amine]	75	116	78	375	0
Fc1ccc2[nH]nc(CCN3CCCC3)c2c1F [Example A73, 4,5-difluoro-3-(2-(pyrrolidin-1-yl)ethyl)-1H-indazole]	87	768	70	1780	18
CN(C)CCc1n[nH]c2ccc(F)cc12 [Example A17, 2-(5-fluoro-1H-indazol-3-yl)-N,N-dimethylethan-1-amine]	82	167	80	34	25
CC(C)N(C)CCc1n[nH]c2ccc(F)cc12 [Example A19, N-(2-(5-fluoro-1H-indazol-3-yl)ethyl)-N-methylpropan-2-amine]	25	> 10000	69	1520	1
COc1cc(F)c2[nH]nc(CCN3CCC4CC43)c2c1 (stereo not drawn) [Example A55, 3-(2-(2-azabicyclo[3.1.0]hexan-2-yl)ethyl)-7-fluoro-5-methoxy-1H-indazole]	86.2	39.8	87	207	48
COc1ccccc1CNCCc1n[nH]c2ccc(F)c(F)c12 [Example A74, 2-(4,5-difluoro-1H-indazol-3-yl)-N-(2-methoxybenzyl)ethan-1-amine]	89	59.5	95	133	0
COc1ccc(F)c2[nH]nc(CCN3CCC4CC43)c12 (stereo not drawn) [Example A49, 3-(2-(2-azabicyclo[3.1.0]hexan-2-yl)ethyl)-7-fluoro-4-methoxy-1H-indazole]	69	216	59	166	7
COc1c(F)ccc2[nH]nc(CCN(C)C3CC3)c12 [Example A4, N-(2-(5-fluoro-4-methoxy-1H-indazol-3-yl)ethyl)-N-methylcyclopropanamine]	67	62.7	91	17.1	2
CCN(C)CCc1n[nH]c2ccc(F)c(OC)c12 [Example A2, N-ethyl-2-(5-fluoro-4-methoxy-1H-indazol-3-yl)-N-methylethan-1-amine]	87	31.5	86	15.5	57
COc1cc2c(CCN3CCCC3)n[nH]c2cc1F [Example A59, 6-fluoro-5-methoxy-3-(2-(pyrrolidin-1-yl)ethyl)-1H-indazole]	79	202	66	3870	5
CN(CCc1n[nH]c2ccc(F)cc12)C1CC1 [Example A20, N-(2-(5-fluoro-1H-indazol-3-yl)ethyl)-N-methylcyclopropanamine]	45	419	83	206	1
CCN(C)CCc1n[nH]c2cc(F)cc(F)c12 [Example A29, 2-(4,6-difluoro-1H-indazol-3-yl)-N-ethyl-N-methylethan-1-amine]	33	687	70	1480	0
COc1ccc(F)c2[nH]nc(CCN(C)C(C)C)c12 [Example A46, N-(2-(7-fluoro-4-methoxy-1H-indazol-3-yl)ethyl)-N-methylpropan-2-amine]	74	133	0	> 10000	0
COc1ccc2[nH]nc(CCN(C)C(C)C)c2c1F [Example A11, N-(2-(4-fluoro-5-methoxy-1H-indazol-3-yl)ethyl)-N-methylpropan-2-amine]	64	1380	22	> 10000	0
CCN(C)CCc1n[nH]c2c(F)cc(F)cc12 [Example A36, 2-(5,7-difluoro-1H-indazol-3-yl)-N-ethyl-N-methylethan-1-amine]	70	361	55	732	0
COc1cc2c(CCN3CCC4CC43)n[nH]c2cc1F (stereo not drawn) [Example A60, 3-(2-(2-azabicyclo[3.1.0]hexan-2-yl)ethyl)-6-fluoro-5-methoxy-1H-indazole]	92	8.12	90	255	89
CCN(C)CCc1n[nH]c2c(F)cc(OC)cc12 [Example A51, N-ethyl-2-(7-fluoro-5-methoxy-1H-indazol-3-yl)-N-methylethan-1-amine]	85	88	43	1370	1
CN(C)CCc1n[nH]c2c(F)cc(F)cc12 [Example A35, 2-(5,7-difluoro-1H-indazol-3-yl)-N,N-dimethylethan-1-amine]	72	213	54	495	1
COc1c(F)ccc2[nH]nc(CCN(C)C)c12 [Example A1, 2-(5-fluoro-4-methoxy-1H-indazol-3-yl)-N,N-dimethylethan-1-amine]	82	28.3	84	8.21	21
